Counter-ions that a name gives are not always drawn. Like-named read-outs stand apart in the source and are kept apart here.
Key:
opioid receptor = molecular target: T1, opioid receptor (Mus musculus, UniProt P42866); assay: in vivo; set-up: species or system CF-1 male mice; settings: sc
T1 construct: Five CF-1 male mice (Charles River, Portage, MI); from tissue; host or cells: living CF-1 male mice (whole animal, endogenous receptor)

[1] = tested on: peripheral opioid receptors; assay: mouse diarrhea test: precipitated diarrhea in morphine-maintained mice (peripheral opioid activity); format: in vivo
mu receptor = molecular target: T2, mu receptor (Rattus norvegicus, UniProt P33535); assay: Naloxone [3H] opioid receptor binding assay (mu receptor); set-up: species or system rat (male Sprague Dawley); settings: 20 min; for Ki: rat whole brain minus cerebellum, pH 7.4, 37° C., read-out: Ki
T2 construct: The brain tissue, rat whole brain minus cerebellum for mu was homogenized; from tissue; host or cells: brain minus cerebellum of male Sprague Dawley rats, homogenate fraction
T2 sequence (P33535 whole entry): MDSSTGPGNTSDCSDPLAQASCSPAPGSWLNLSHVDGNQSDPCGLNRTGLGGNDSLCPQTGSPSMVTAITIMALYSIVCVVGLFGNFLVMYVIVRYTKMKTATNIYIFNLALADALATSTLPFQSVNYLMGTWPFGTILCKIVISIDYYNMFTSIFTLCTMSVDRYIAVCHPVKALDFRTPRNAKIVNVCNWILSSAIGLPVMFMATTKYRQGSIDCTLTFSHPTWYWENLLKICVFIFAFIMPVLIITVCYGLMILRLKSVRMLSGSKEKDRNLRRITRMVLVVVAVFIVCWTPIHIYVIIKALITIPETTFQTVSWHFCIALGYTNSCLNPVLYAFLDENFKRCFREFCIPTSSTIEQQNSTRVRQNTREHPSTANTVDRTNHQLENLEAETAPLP

[2] = mouse writhing test, […], s.c. 20 min before acetic acid, read-out: AD50 (the source's name)
[3] = AD50 mouse writhing / ED50 mouse diarrhea, higher = greater relative peripheral antagonism
[4] = pH 7.4, read-out: % displacement at 10 nM
[5] = pH 7.4, read-out: % displacement at 100 nM
[6] = mouse writhing test, dose of antagonist that reduced inhibition of writhing by 1.25 mg/kg morphine sulfate to 50%, s.c. 20 min before acetic acid, read-out: AD50 (the source's name)
[7] = pH 7.4, 100 nM test compound, [3H]naloxone 0.5 nM, […], read-out: % displacement at 100 nM

T1 sequence (P42866 whole entry): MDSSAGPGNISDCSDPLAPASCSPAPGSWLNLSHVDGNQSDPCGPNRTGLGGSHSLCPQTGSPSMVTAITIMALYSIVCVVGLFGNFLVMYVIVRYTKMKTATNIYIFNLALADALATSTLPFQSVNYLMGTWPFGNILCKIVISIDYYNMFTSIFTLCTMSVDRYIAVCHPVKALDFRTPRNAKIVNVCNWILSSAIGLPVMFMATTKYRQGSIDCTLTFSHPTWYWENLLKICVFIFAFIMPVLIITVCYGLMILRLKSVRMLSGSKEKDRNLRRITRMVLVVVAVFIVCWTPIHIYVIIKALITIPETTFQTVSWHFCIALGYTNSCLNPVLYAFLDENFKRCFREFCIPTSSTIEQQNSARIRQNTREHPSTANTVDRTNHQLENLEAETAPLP

Compound | ED50 (opioid receptor; [2]) [mg/kg] | Ratio (ratio of AD50 to ED50) [1, 3] | inhibition at 0.01 µM (mu receptor; [4]) [%] | inhibition at 0.1 µM (mu receptor; [5]) [%] | Ki (mu receptor; […], [3H]naloxone 0.5 nM) [nM] | ED50 (opioid receptor; [6]) [mg/kg] | Ratio (ratio of AD50 to ED50) ([1]; mouse, in vivo) | inhibition at 0.1 µM (mu receptor; [7]) [%] | ED50 (opioid receptor; mouse, read-out: AD50) [mg/kg] | inhibition at 0.01 µM (mu receptor; pH 7.4, 10 nM test compound, [3H]naloxone 0.5 nM, […], read-out: % displacement at 10 nM) [%] | inhibition at 0.01 µM (mu receptor; pH 7.4, 10 nM test compound, [3H]naloxone 0.5 nM, mu receptor, read-out: % displacement at 10 nM) [%] | inhibition at 0.1 µM (mu receptor; pH 7.4, 100 nM test compound, [3H]naloxone 0.5 nM, mu receptor, read-out: % displacement at 100 nM) [%]
C[C@H]1CN(CCC(NC(=O)CCCC(=O)O)C2CCCCC2)CC[C@@]1(C)c1cccc(O)c1 (stereo in doubt) [Example 5, 5-((3-(trans-4-(3-hydroxyphenyl)-3,4-dimethyl-1-piperidinyl)-1-cyclohexylpropyl)amino)-5-oxo-pentanoic acid monohydrochloride monohydrate] | > 20 | > 1666 | 100 | 100 | 0.3 |  |  |  |  |  |  | 
COC(=O)[C@H](Cc1ccccc1)NC(=O)CCC(=O)N(CCN1CCC(C)(c2cccc(O)c2)C(C)C1)C1CCCCC1 (stereo partly drawn) [Example 41, 2-((1,4-dioxo-4-(cyclohexyl-(2-(trans-4-(3-hydroxyphenyl)-3,4-dimethyl-1-piperidinyl)ethyl)amino)butyl)-amino)-3-phenylpropanoic acid, methyl ester] | 32 | 74 | 87 | 99 | 2.45 |  |  |  |  |  |  | 
C[C@H]1CN(CCCN(C(=O)CCCC(N)=O)C2CCCCC2)CC[C@@]1(C)c1cccc(O)c1 (relative stereo) [Example 37, N-(3-(trans-4-(3-hydroxyphenyl)-3,4-dimethyl-1-piperidinyl)propyl)-N-cyclohexylpentanediamide monohydrochloride monohydrate] | 12.8 | 256 | 88 | 100 | 0.61 |  |  |  |  |  |  | 
C[C@H]1CN(CCN(C(=O)CCCC(=O)O)C2CCCCC2)CC[C@@]1(C)c1cccc(O)c1 (relative stereo) [Example 23, 5-(Cyclohexyl-(2-(trans-4-(3-hydroxyphenyl)-3,4-dimethyl-1-piperidinyl)ethyl)amino)-5-oxopentanoic acid monohydrate] |  | > 5 | 77 | 100 | 4.38 | > 1.25 |  |  |  |  |  | 
C[C@H]1CN(C[C@H](CC2CCCCC2)NC(=O)CCCC(=O)OCC(=O)N(C)C)CC[C@@]1(C)c1cccc(O)c1 [Example 64] | 13.5 |  | 81 | 94 | 1.51 |  |  |  |  |  |  | 
CC(C)CC(=O)NCCCC(=O)N(CCN1CC[C@@](C)(c2cccc(O)c2)[C@@H](C)C1)C1CCCCC1 (relative stereo) [Example 40, hydrochloride] | 2.2 |  | 87 | 100 | 1.16 |  | 3 |  |  |  |  | 
CNC(=O)CNC(=O)CC(=O)N(CCN1CC[C@@](C)(c2cccc(O)c2)[C@@H](C)C1)C1CCCCC1 (relative stereo) [Example 38, N-cyclohexyl-N-(2-(trans-4-(3-hydroxyphenyl)-3,4-dimethyl-1-piperidinyl)ethyl)-N'-(2-(methylamino)-2-oxoethyl)propanediamide monohydrochloride] | 28.9 | 1605 | 79 |  | 2.98 |  |  | 98 |  |  |  | 
CC(C)OC(=O)CCC(=O)N(CCN1CC[C@@](C)(c2cccc(O)c2)[C@@H](C)C1)C1CCCCC1 (relative stereo) [Example 30, 4-(Cyclohexyl-(2-(trans-4-(3-hydroxyphenyl)-3,4-dimethyl-1-piperidinyl)ethyl)amino)-4-oxobutanoic acid 1-methyl-ethyl ester] | 12.4 | > 40 | 79 | 96 | 11 |  |  |  |  |  |  | 
CC(=O)NC(CCN1CC[C@@](C)(c2cccc(O)c2)[C@@H](C)C1)c1ccccc1 (stereo in doubt) [Example 6, N-(3-(trans-4-(3-hydroxyphenyl)-3,4-dimethyl-1-piperidinyl)-1-phenylpropyl)acetamide] | 30 | 428 | 82 | 94 | 6.49 |  |  |  |  |  |  | 
C[C@H]1CN(CCN(C(=O)CCC(N)=O)C2CCCCC2)CC[C@@]1(C)c1cccc(O)c1 (relative stereo) [Example 35, N-Cyclohexyl-N-(2-(trans-4-(3-hydroxyphenyl)-3,4-dimethyl-1-piperidinyl)ethyl)butanediamide monohydrochloride] |  | > 3 | 80 | 99 | 2.15 | > 1.25 |  |  |  |  |  | 
CCOC(=O)CCCC(=O)NC(CCN1CC[C@@](C)(c2cccc(O)c2)[C@@H](C)C1)CC(C)C (single isomer, unassigned) [Example 3A, 5-((1-(2-(trans-4-(3-hydroxyphenyl)-3,4-dimethyl-1-piperidinyl)ethyl)-3-methylbutyl)amino)-5-oxopentanoic acid ethyl ester monohydrochloride] | 14.2 | 89 | 100 | 100 | 0.3 |  |  |  |  |  |  | 
CCOC(=O)CCCC(=O)N[C@@H](CC1CCCCC1)CN1CC[C@](C)(c2cccc(O)c2)[C@H](C)C1 [Example 51] | > 40 |  | 73 | 97 |  |  |  |  |  |  |  | 
CCCOC(=O)CCC(=O)N(CCN1CC[C@@](C)(c2cccc(O)c2)[C@@H](C)C1)C1CCCCC1 (relative stereo) [Example 31, 4-(Cyclohexyl-(2-(trans-4-(3-hydroxyphenyl)-3,4-dimethyl-1-piperidinyl)ethyl)amino)-4-oxobutanoic acid propyl ester] | > 40 | > 200 | 82 |  | 2.52 |  |  | 97 |  |  |  | 
CCOC(=O)CCCC(=O)NC(CCN1CC[C@@](C)(c2cccc(O)c2)[C@@H](C)C1)CC(C)C (stereo in doubt) [Example 3B, 5-((1-(2-(trans-4-(3-hydroxyphenyl)-3,4-dimethyl-1-piperidinyl)ethyl)-3-methylbutyl)amino)-5-oxopentanoic acid ethyl ester monohydrochloride] | 15.5 | 111 | 93 | 99 | 0.86 |  |  |  |  |  |  | 
C[C@H]1CN(CCCN(CC2CCCCC2)C(=O)CCCC(=O)O)CC[C@@]1(C)c1cccc(O)c1 (relative stereo) [Example 27, Trans-5-(cyclohexylmethyl(3-(4-(3-hydroxyphenyl)-3,4-dimethyl-1-piperidinyl)propyl)amino)-5-oxopentanoic acid monohydrate] | 11 | 61 | 63 | 93 | 8 |  |  |  |  |  |  | 
C[C@H]1CN(CCN(C(=O)CCCC(=O)O)c2ccccc2)CC[C@@]1(C)c1cccc(O)c1 (relative stereo) [Example 20, Trans-5-(phenyl-(2-(4-(3-hydroxyphenyl)-3,4-dimethyl-1-piperidinyl)ethyl)amino)-5-oxopentanoic acid monohydrate] |  |  | 95 | 99 |  |  | 35 |  | 2.1 |  |  | 
C[C@H]1CN(CCN(CC2CCCCC2)C(=O)CCC(=O)O)CC[C@@]1(C)c1cccc(O)c1 (relative stereo) [Example 26, 4-(cyclohexylmethyl-(2-(trans-4-(3-hydroxyphenyl)-3,4-dimethyl-1-piperidinyl)ethyl)amino)-4-oxobutanoic acid monohydrate] | 3.6 | 72 | 73 | 100 | 1.91 |  |  |  |  |  |  | 
C[C@H]1CN(CCCN(C(=O)CCCC(=O)O)C2CCCCC2)CC[C@@]1(C)c1cccc(O)c1 (relative stereo) [Example 25, 5-(cyclohexyl-(3-(trans-4-(3-hydroxyphenyl)-3,4-dimethyl-1-piperidinyl)propyl)amino)-5-oxopentanoic acid] | 0.61 | 10 | 77 | 93 | 1.18 |  |  |  |  |  |  | 
CCOC(=O)CCCC(=O)N(CCCN1CC[C@@](C)(c2cccc(O)c2)[C@@H](C)C1)C1CCCCC1 (relative stereo) [Example 33, 5-(Cyclohexyl-(3-(trans-4-(3-hydroxyphenyl)-3,4-dimethyl-1-piperidinyl)propyl)amino)-5-oxopentanoic acid ethyl ester monohydrochloride] | 3.67 | 122 |  | 99 | 0.26 |  |  |  |  | 83 |  | 
C[C@H]1CN(CC(Cc2ccccc2)NC(=O)CCC(=O)O)CC[C@@]1(C)c1cccc(O)c1 (stereo partly drawn) [Example 14] | 21 | 656 | 20 | 64 | 32.4 |  |  |  |  |  |  | 
CC(=O)OC(C)OC(=O)CCCC(=O)N[C@@H](CC1CCCCC1)CN1CC[C@@](C)(c2cccc(O)c2)[C@@H](C)C1 (stereo partly drawn) [Example 67] | > 40 |  |  |  |  |  |  |  |  |  | 73 | 95
